Data set [1] has as its system A549. Nature of the data set: Antiproliferative activity against human A549 cells assessed as inhibition of cell growth at 12.5 ug/ml measured after 48 hrs by real-time cell analysis relative to control. Type of data set: functional. The settings on record: read-out: GI.
Data set [2] concerns HepG2. As to the kind of experiment: Antiproliferative activity against human HepG2 cells assessed as inhibition of cell growth at 12.5 ug/ml measured after 48 hrs by real-time cell analysis relative to control. Type of data set: functional. The settings on record: read-out: GI.
In data set [3] the test system is Mus musculus. Nature of the data set: Anti-insomnia activity pentobarbital-induced mouse model of insomnia assessed as time of sleep duration at 32 mg/kg, ig administered daily for 15 days followed by pentobarbital addition at 1 hr post last dose (reference value: 17.1 +/- 5.15 min). The settings on record: time 15 day. Type of data set: functional.
Data set [4] concerns Mus musculus. As to the kind of experiment: Anti-insomnia activity pentobarbital-induced mouse model of insomnia assessed as sleep rate at 8 mg/kg, ig administered daily for 15 days followed by pentobarbital addition at 1 hr post last dose relative to control. Type of data set: functional. The settings on record: time 15 day.
Data set [5] has as its system Mus musculus. As to the kind of experiment: Anti-insomnia activity pentobarbital-induced mouse model of insomnia assessed as number of forelimb lifts at 32 mg/kg, ig administered daily for 15 days followed by pentobarbital addition at 1 hr post last dose (reference value: 9.2 +/- 4.31). Type of data set: functional. The settings on record: time 15 day.
Data set [6] concerns Mus musculus. Nature of the data set: Anti-insomnia activity pentobarbital-induced mouse model of insomnia assessed as time of sleep latency at 8 mg/kg, ig administered daily for 15 days followed by pentobarbital addition at 1 hr post last dose (reference value: 8.1 +/- 6.06 min). Type of data set: functional. The settings on record: time 15 day.
Data set [7] concerns Mus musculus. As to the kind of experiment: Anti-insomnia activity pentobarbital-induced mouse model of insomnia assessed as sleep rate at 16 mg/kg, ig administered daily for 15 days followed by pentobarbital addition at 1 hr post last dose relative to control. Particulars: time 15 day. Type of data set: functional.
The subject of data set [8] is Mus musculus. As to the kind of experiment: Anti-insomnia activity pentobarbital-induced ig dosed mouse model of insomnia assessed as reduction in time before sleep administered daily for 15 days followed by pentobarbital addition at 1 hr post last dose. Type of data set: functional, organism-based. The settings on record: dose 8-32 mg/kg, time 15.0 day.
Data set [9] relates to Mus musculus. Nature of the data set: Anti-insomnia activity pentobarbital-induced ig dosed mouse model of insomnia assessed as increase in sleep time administered daily for 15 days followed by pentobarbital addition at 1 hr post last dose. Type of data set: functional, organism-based. Particulars: dose 8-32 mg/kg, time 15.0 day.
Data set [10] relates to Mus musculus. Nature of the data set: Anti-insomnia activity pentobarbital-induced mouse model of insomnia assessed as number of forelimb lifts at 16 mg/kg, ig administered daily for 15 days followed by pentobarbital addition at 1 hr post last dose (reference value: 9.2 +/- 4.31). Type of data set: functional. Particulars: time 15 day.
The test system of data set [11] is Mus musculus. As to the kind of experiment: Anti-insomnia activity pentobarbital-induced mouse model of insomnia assessed as sleep rate at 32 mg/kg, ig administered daily for 15 days followed by pentobarbital addition at 1 hr post last dose relative to control. Type of data set: functional. Particulars: time 15 day.
In data set [12] the test system is Mus musculus. Nature of the data set: Anti-insomnia activity pentobarbital-induced mouse model of insomnia assessed as time of sleep latency at 16 mg/kg, ig administered daily for 15 days followed by pentobarbital addition at 1 hr post last dose (reference value: 8.1 +/- 6.06 min). The settings on record: time 15 day. Type of data set: functional.
The test system of data set [13] is Mus musculus. Nature of the data set: Anti-insomnia activity pentobarbital-induced mouse model of insomnia assessed as number of forelimb lifts at 8 mg/kg, ig administered daily for 15 days followed by pentobarbital addition at 1 hr post last dose (reference value: 9.2 +/- 4.31). Type of data set: functional. The settings on record: time 15 day.
For data set [14], the system named is Mus musculus. As to the kind of experiment: Anti-insomnia activity pentobarbital-induced mouse model of insomnia assessed as time of sleep duration at 16 mg/kg, ig administered daily for 15 days followed by pentobarbital addition at 1 hr post last dose (reference value: 17.1 +/- 5.15 min). Type of data set: functional. Particulars: time 15 day.
Data set [15] relates to Mus musculus. Nature of the data set: Anti-insomnia activity pentobarbital-induced mouse model of insomnia assessed as time of sleep latency at 32 mg/kg, ig administered daily for 15 days followed by pentobarbital addition at 1 hr post last dose (reference value: 8.1 +/- 6.06 min). Type of data set: functional. Particulars: time 15 day.
For data set [16], the system named is Mus musculus. Nature of the data set: Anti-insomnia activity pentobarbital-induced mouse model of insomnia assessed as time of sleep duration at 8 mg/kg, ig administered daily for 15 days followed by pentobarbital addition at 1 hr post last dose (reference value: 17.1 +/- 5.15 min). Type of data set: functional. The settings on record: time 15 day.
A short description of data set [17]: Toxicity in human H22 cells xenografted KM mouse assessed as survival rate at 20 mg/kg, ig administered every day for 10 days relative to control. The settings on record: in vivo, po. Background: A xenograft is tissue or cells of one species grown in another, often human tumour cells in immunodeficient mice.
Data set [18] is described as follows: Toxicity in human Lewis lung cancer cells xenografted BALB/c mouse assessed as survival rate at 20 mg/kg, ig administered every day for 10 days (reference value: 100%). Particulars: in vivo, po.
Data set [19] can be described thus: Antitumor activity against human Lewis lung cancer cells xenografted in BALB/c mouse assessed as tumor growth inhibition at 20 mg/kg, ig administered every day for 10 days relative to control. Particulars: Lewis lung carcinoma, po, 240 h, read-out: TGI.
The nature of data set [20]: Antitumor activity against human H22 cells xenografted in KM mouse assessed as tumor growth inhibition at 20 mg/kg, ig administered every day for 10 days relative to control. The settings on record: H22, po, 240 h, read-out: TGI.
In data set [21] the test system is Mus musculus. Nature of the data set: Anti-insomnia activity pentobarbital-induced mouse model of insomnia assessed as time of sleep duration at 0.029 mg/kg, ig administered daily for 15 days followed by pentobarbital addition at 1 hr post last dose (reference value: 17.1 +/- 5.15 min). Type of data set: functional. The settings on record: time 15 day.
Data set [22] concerns Mus musculus. Nature of the data set: Anti-insomnia activity pentobarbital-induced mouse model of insomnia assessed as sleep rate at 0.029 mg/kg, ig administered daily for 15 days followed by pentobarbital addition at 1 hr post last dose relative to control. Type of data set: functional. The settings on record: time 15 day.
In data set [23] the test system is Mus musculus. As to the kind of experiment: Anti-insomnia activity pentobarbital-induced mouse model of insomnia assessed as time of sleep latency at 0.029 mg/kg, ig administered daily for 15 days followed by pentobarbital addition at 1 hr post last dose (reference value: 8.1 +/- 6.06 min). Particulars: time 15 day. Type of data set: functional.
In data set [24] the test system is Mus musculus. As to the kind of experiment: Anti-insomnia activity pentobarbital-induced mouse model of insomnia assessed as number of forelimb lifts at 0.029 mg/kg, ig administered daily for 15 days followed by pentobarbital addition at 1 hr post last dose (reference value: 9.2 +/- 4.31). Particulars: time 15 day. Type of data set: functional.

From ChEMBL document CHEMBL4706663, “Large-scale isolation and antitumor mechanism evaluation of compounds from the traditional Chinese medicine Cordyceps Militaris” (Eur J Med Chem, 2021) come the findings set out here.

In the case of `C/C(=C\[C@@H](C)[C@H]1CC[C@@H]2[C@]1(C)CC[C@H]1[C@]23C=C[C@]2(C[C@@H](O)CC[C@]12C)OO3)[C@H](C)C(C)C`, the inhibition of growth at 12.5 µg/mL in data set [1] and in data set [2] was 100% in each case.

In the case of `OCCNc1ncnc2c1ncn2[C@@H]1O[C@H](CO)[C@@H](O)[C@H]1O`, the Time is 34.5 min in data set [3]; 5.7 min in [6]; 5.2 min in data set [12]; 26.2 min in [14]; 5.1 min in data set [15]; 24.2 min in [16]. The Activity in data set [4] was 20%; in [5], 3.3; in [7] it was 40%; in data set [8], “Dose-dependent effect”; in data set [9] it was “Dose-dependent effect”; in data set [10], 3.9. Also, the Activity in data set [11] stood at 60%; in data set [13], 9.

`O=P1(N(CCCl)CCCl)NCCCO1` (stereo unspecified) [CYCLOPHOSPHAMIDE ANHYDROUS]: the survival at 240 h in data set [17] and in data set [18] was 100% throughout. Moreover, the inhibition in vivo at 20 mg/kg in [19] was 46.3%; in [20] it was 52.9%.

With `CC(C)[C@@H](C)/C=C/[C@@H](C)[C@H]1CC[C@H]2C3=CC(=O)[C@@]4(O)C[C@@H](O)CC[C@]4(C)[C@H]3CC[C@]12C`, the inhibition of growth at 12.5 µg/mL in data set [1] and in [2] was 100% in each case.

`Clc1ccc2c(c1)C(c1ccccc1)=NCc1nncn1-2` [ESTAZOLAM]: the Time in data set [21] is listed as 26 min; in [23] it was 5.9 min. Moreover, the Activity amounted to 60% in data set [22] and 4.1 in [24].
